From ChEMBL document CHEMBL1255301, “Activity of Tigecycline against Coryneform Bacteria of Clinical Interest and Listeria monocytogenes” (2008)
Converted amounts (≈) assume the structure as drawn.

What was measured:
Format in all cases: functional
[1] = tested on: Listeria monocytogenes; assay: Antimicrobial activity against Listeria monocytogenes isolates by CLSI M45-A protocol based microdilution method
[2] = tested on: Corynebacterium pseudodiphtheriticum; assay: Antimicrobial activity against Corynebacterium pseudodiphtheriticum isolates by CLSI M45-A protocol based microdilution method
[3] = tested on: Corynebacterium jeikeium; assay: Antimicrobial activity against Corynebacterium jeikeium isolates by CLSI M45-A protocol based microdilution method
[4] = tested on: Corynebacterium urealyticum; assay: Antimicrobial activity against Corynebacterium urealyticum isolates by CLSI M45-A protocol based microdilution method
[5] = tested on: Arcanobacterium haemolyticum; assay: Antimicrobial activity against Arcanobacterium haemolyticum isolates by CLSI M45-A protocol based microdilution method
[6] = tested on: Prescottella equi; assay: Antimicrobial activity against Rhodococcus equi isolates by CLSI M45-A protocol based microdilution method
[7] = tested on: Corynebacterium striatum; assay: Antimicrobial activity against Corynebacterium striatum isolates by CLSI M45-A protocol based microdilution method
[8] = tested on: Corynebacterium amycolatum; assay: Antimicrobial activity against Corynebacterium amycolatum isolates by CLSI M45-A protocol based microdilution method
[9] = tested on: Corynebacterium minutissimum; assay: Antimicrobial activity against Corynebacterium minutissimum isolates by CLSI M45-A protocol based microdilution method
[10] = tested on: Corynebacterium xerosis; assay: Antimicrobial activity against Corynebacterium xerosis isolates by CLSI M45-A protocol based microdilution method
[11] = Rhodococcus (subgen. Prescottella) equi

Compound | MIC50 [1] | MIC90 [1] | MIC50 [2] | MIC90 [2] | MIC50 [3] | MIC90 [3] | MIC50 [4] | MIC90 [4] | MIC50 [5] | MIC90 [5] | MIC50 [6, 11] | MIC90 [6, 11] | MIC50 [7] | MIC90 [7] | MIC50 [8] | MIC90 [8] | MIC50 [9] | MIC50 [10] | MIC [3] | MIC [5] | further results
C[C@H]1COc2c(N3CCN(C)CC3)c(F)cc3c(=O)c(C(=O)O)cn1c23.C[C@H]1COc2c(N3CCN(C)CC3)c(F)cc3c(=O)c(C(=O)O)cn1c23.O [LEVOFLOXACIN] | 0.5 µg/mL | 1 µg/mL | 0.25 µg/mL | 4 µg/mL | 4 µg/mL | > 32 µg/mL | > 32 µg/mL | > 32 µg/mL | 0.5 µg/mL | 0.5 µg/mL | 1 µg/mL | 2 µg/mL | > 32 µg/mL | > 32 µg/mL | > 32 µg/mL | > 32 µg/mL | 0.06 µg/mL | 32 µg/mL |  |  | 
CO/N=C(\C(=O)N[C@@H]1C(=O)N2C(C(=O)O)=C(COC(N)=O)CS[C@H]12)c1ccco1 [CEFUROXIME] | > 32 µg/mL | > 32 µg/mL | 0.06 µg/mL (≈ 0.141 µM) | 0.125 µg/mL (≈ 0.295 µM) | > 32 µg/mL | > 32 µg/mL | > 32 µg/mL | > 32 µg/mL | 0.125 µg/mL (≈ 0.295 µM) | 0.25 µg/mL (≈ 0.589 µM) | 8 µg/mL (≈ 18.9 µM) | 16 µg/mL (≈ 37.7 µM) | 1 µg/mL (≈ 2.36 µM) | 2 µg/mL (≈ 4.71 µM) | 0.5 µg/mL (≈ 1.18 µM) | 2 µg/mL (≈ 4.71 µM) | 0.5 µg/mL (≈ 1.18 µM) | 2 µg/mL (≈ 4.71 µM) |  |  | 
CN(C)c1ccc(O)c2c1C[C@H]1C[C@H]3[C@H](N(C)C)C(O)=C(C(N)=O)C(=O)[C@@]3(O)C(O)=C1C2=O [MINOCYCLINE] | 0.06 µg/mL (≈ 0.131 µM) | 0.06 µg/mL (≈ 0.131 µM) | 0.06 µg/mL (≈ 0.131 µM) | 0.06 µg/mL (≈ 0.131 µM) | 0.06 µg/mL (≈ 0.131 µM) | 0.25 µg/mL (≈ 0.546 µM) | 0.06 µg/mL (≈ 0.131 µM) | 0.5 µg/mL (≈ 1.09 µM) | ≤ 0.03 µg/mL | 4 µg/mL (≈ 8.74 µM) | 0.25 µg/mL (≈ 0.546 µM) | 0.25 µg/mL (≈ 0.546 µM) | 4 µg/mL (≈ 8.74 µM) | 8 µg/mL (≈ 17.5 µM) | 0.06 µg/mL (≈ 0.131 µM) | 0.25 µg/mL (≈ 0.546 µM) | ≤ 0.03 µg/mL | 0.25 µg/mL (≈ 0.546 µM) | 0.06 µg/mL (≈ 0.131 µM) | ≤ 0.03 µg/mL | MIC [9]: ≤ 0.03 µg/mL
GENTAMICIN | 0.25 µg/mL | 0.125 µg/mL | 0.06 µg/mL | 0.06 µg/mL | > 32 µg/mL | > 32 µg/mL | > 32 µg/mL | > 32 µg/mL | 0.5 µg/mL | 0.5 µg/mL |  |  | 2 µg/mL | 8 µg/mL | 8 µg/mL | 16 µg/mL | 0.06 µg/mL | 8 µg/mL |  |  | MIC50 [6]: 0.5 µg/mL; MIC90 [6]: 1 µg/mL; MIC [9]: < 0.03 µg/mL; MIC [10]: < 0.03 µg/mL
CN[C@H](CC(C)C)C(=O)N[C@H]1C(=O)N[C@@H](CC(N)=O)C(=O)N[C@H]2C(=O)N[C@H]3C(=O)N[C@H](C(=O)N[C@H](C(=O)O)c4cc(O)cc(O)c4-c4cc3ccc4O)[C@H](O)c3ccc(c(Cl)c3)Oc3cc2cc(c3O[C@@H]2O[C@H](CO)[C@@H](O)[C@H](O)[C@H]2O[C@H]2C[C@](C)(N)[C@H](O)[C@H](C)O2)Oc2ccc(cc2Cl)[C@H]1O [VANCOMYCIN] | 0.5 µg/mL (≈ 0.345 µM) | 1 µg/mL (≈ 0.69 µM) | 0.25 µg/mL (≈ 0.173 µM) | 0.25 µg/mL (≈ 0.173 µM) | 0.06 µg/mL (≈ 0.0414 µM) | 0.25 µg/mL (≈ 0.173 µM) | 0.25 µg/mL (≈ 0.173 µM) | 0.5 µg/mL (≈ 0.345 µM) | 0.25 µg/mL (≈ 0.173 µM) | 0.5 µg/mL (≈ 0.345 µM) | 0.5 µg/mL (≈ 0.345 µM) | 0.5 µg/mL (≈ 0.345 µM) | 0.25 µg/mL (≈ 0.173 µM) | 0.5 µg/mL (≈ 0.345 µM) | 0.25 µg/mL (≈ 0.173 µM) | 0.5 µg/mL (≈ 0.345 µM) | 0.25 µg/mL (≈ 0.173 µM) | 0.25 µg/mL (≈ 0.173 µM) | 0.06 µg/mL (≈ 0.0414 µM) |  | 
C[C@H]1c2cccc(O)c2C(=O)C2=C(O)[C@]3(O)C(=O)C(C(N)=O)=C(O)[C@@H](N(C)C)[C@@H]3[C@@H](O)[C@@H]21.O [DOXYCYCLINE] | 0.125 µg/mL | 0.125 µg/mL | 0.125 µg/mL | 0.125 µg/mL | 0.03 µg/mL | 1 µg/mL | 0.125 µg/mL | 4 µg/mL | 0.125 µg/mL | 8 µg/mL | 1 µg/mL | 1 µg/mL | 8 µg/mL | > 16 µg/mL | 0.06 µg/mL | 0.5 µg/mL | 0.25 µg/mL | 0.5 µg/mL |  |  | 
CN(C)[C@@H]1C(O)=C(C(N)=O)C(=O)[C@@]2(O)C(O)=C3C(=O)c4c(O)cccc4[C@@](C)(O)[C@H]3C[C@@H]12 [TETRACYCLINE] | 0.5 µg/mL (≈ 1.13 µM) | 0.5 µg/mL (≈ 1.13 µM) | 0.125 µg/mL (≈ 0.281 µM) | 0.25 µg/mL (≈ 0.563 µM) | 0.06 µg/mL (≈ 0.135 µM) |  | 0.25 µg/mL (≈ 0.563 µM) | 16 µg/mL (≈ 36 µM) | 0.125 µg/mL (≈ 0.281 µM) | 16 µg/mL (≈ 36 µM) | 8 µg/mL (≈ 18 µM) | 8 µg/mL (≈ 18 µM) | 16 µg/mL (≈ 36 µM) | > 32 µg/mL | 0.125 µg/mL (≈ 0.281 µM) | 0.5 µg/mL (≈ 1.13 µM) | 0.25 µg/mL (≈ 0.563 µM) | 0.5 µg/mL (≈ 1.13 µM) | 0.06 µg/mL (≈ 0.135 µM) |  | 
CN(C)c1cc(NC(=O)CNC(C)(C)C)c(O)c2c1C[C@H]1C[C@H]3[C@H](N(C)C)C(O)=C(C(N)=O)C(=O)[C@@]3(O)C(O)=C1C2=O [TIGECYCLINE] | 0.06 µg/mL (≈ 0.102 µM) | 0.125 µg/mL (≈ 0.213 µM) | ≤ 0.015 µg/mL | 0.03 µg/mL (≈ 0.0512 µM) | ≤ 0.015 µg/mL | 0.03 µg/mL (≈ 0.0512 µM) | 0.03 µg/mL (≈ 0.0512 µM) | 0.06 µg/mL (≈ 0.102 µM) | ≤ 0.015 µg/mL | ≤ 0.015 µg/mL | 0.25 µg/mL (≈ 0.427 µM) | 0.5 µg/mL (≈ 0.854 µM) | 0.5 µg/mL (≈ 0.854 µM) | 1 µg/mL (≈ 1.71 µM) | 0.125 µg/mL (≈ 0.213 µM) | 0.25 µg/mL (≈ 0.427 µM) | ≤ 0.015 µg/mL | 0.125 µg/mL (≈ 0.213 µM) | ≤ 0.015 µg/mL | ≤ 0.015 µg/mL | MIC [2]: ≤ 0.015 µg/mL; MIC [9]: ≤ 0.003 µg/mL
CCC[C@@H]1C[C@@H](C(=O)N[C@@H]([C@H]2O[C@H](SC)[C@H](O)[C@@H](O)[C@H]2O)[C@H](C)Cl)N(C)C1 [CLINDAMYCIN] | 1 µg/mL (≈ 2.35 µM) | 2 µg/mL (≈ 4.71 µM) | > 16 µg/mL | > 16 µg/mL | > 16 µg/mL | > 16 µg/mL | > 16 µg/mL | > 16 µg/mL | ≤ 0.015 µg/mL | ≤ 0.015 µg/mL | 2 µg/mL (≈ 4.71 µM) | 8 µg/mL (≈ 18.8 µM) | > 16 µg/mL | > 16 µg/mL | > 16 µg/mL | > 16 µg/mL | > 16 µg/mL | > 16 µg/mL | > 16 µg/mL | ≤ 0.015 µg/mL | 
